Experiments:
[1] = test system: lambsquarters; experiment: Test Example 4: herbicidal effect by soil treatment (Table 19, symbol O); assay type: in vivo, lambsquarters (Chenopodium album); details: amount of applied herbicide 320 g/ha
In short: (§1)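 Soil-surface application: an emulsion agent diluted with water to the predetermined dose is sprayed uniformly over seeds lying under roughly 1.5 cm of sterilized diluvial soil. Boxes stay in a greenhouse at 25° C. to 30° C. Three weeks later, each species is graded on previously defined criteria.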

[2] = test system: southern crabgrass; experiment: Test Example 5: herbicidal effect by foliage application, plastic box (Table 20, symbol F); assay type: in vivo, southern crabgrass (Digitaria ciliaris); details: foliage application, 320 g/ha, three weeks after application
In short: (§2)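 Sow seeds spot-wise in sterilized diluvial soil; cover with ~1.5 cm soil. Grow 14 days in greenhouse, 25° C. to 30° C. Spray foliage with emulsion diluted to predetermined amount. Rate effect after 3 weeks.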

[3] = test system: lambsquarters; experiment: Test Example 5: herbicidal effect by foliage application, plastic box (Table 20, symbol O); assay type: in vivo, lambsquarters (Chenopodium album); details: foliage application, 320 g/ha, three weeks after application
In short: as §2

[4] = test system: Italian ryegrass; experiment: Test Example 4: herbicidal effect by soil treatment (Table 19, symbol K); assay type: in vivo, Italian ryegrass (Lolium multiflorum); details: amount of applied herbicide 320 g/ha
In short: as §1

[5] = test system: Italian ryegrass; experiment: Test Example 5: herbicidal effect by foliage application, plastic box (Table 20, symbol K); assay type: in vivo, Italian ryegrass (Lolium multiflorum); details: foliage application, 320 g/ha, three weeks after application
In short: as §2

[6] = test system: barnyard grass; experiment: Test Example 5: herbicidal effect by foliage application, plastic box (Table 20, symbol H); assay type: in vivo, barnyard grass (Echinochloa crus-galli); details: foliage application, 320 g/ha, three weeks after application
In short: as §2

[7] = test system: blackgrass; experiment: Test Example 5: herbicidal effect by foliage application, plastic box (Table 20, symbol J); assay type: in vivo, blackgrass (Alopecurus myosuroides); details: foliage application, 320 g/ha, three weeks after application
In short: as §2

[8] = test system: green foxtail; experiment: Test Example 5: herbicidal effect by foliage application, plastic box (Table 20, symbol G); assay type: in vivo, green foxtail (Setaria viridis); details: foliage application, 320 g/ha, three weeks after application
In short: as §2

[9] = test system: chickweed; experiment: Test Example 5: herbicidal effect by foliage application, plastic box (Table 20, symbol P); assay type: in vivo, common chickweed (Stellaria media); details: foliage application, 320 g/ha, three weeks after application
In short: as §2

[10] = test system: barnyard grass; experiment: Test Example 4: herbicidal effect by soil treatment (Table 19, symbol H); assay type: in vivo, barnyard grass (Echinochloa crus-galli); details: amount of applied herbicide 320 g/ha
In short: as §1

[11] = test system: chickweed; experiment: Test Example 4: herbicidal effect by soil treatment (Table 19, symbol P); assay type: in vivo, common chickweed (Stellaria media); details: amount of applied herbicide 320 g/ha
In short: as §1

[12] = test system: rice flat sedge; experiment: Test Example 3: herbicidal effect by foliage application, Wagner pot (Table 18, symbol E); assay type: in vivo, rice flat sedge (Cyperus iria); details: 320 g/ha
In short: (§3)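 Plants were sown in alluvial soil held under 0.1–0.5 cm standing water and grown 14 days in a greenhouse at 25–30 °C. An emulsifiable formulation, water-diluted to the set dose, was then sprayed onto the foliage, and effects were scored three weeks later using previously defined criteria.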

[13] = test system: blackgrass; experiment: Test Example 4: herbicidal effect by soil treatment (Table 19, symbol J); assay type: in vivo, blackgrass (Alopecurus myosuroides); details: amount of applied herbicide 320 g/ha
In short: as §1

[14] = test system: redroot pigweed; experiment: Test Example 5: herbicidal effect by foliage application, plastic box (Table 20, symbol N); assay type: in vivo, redroot pigweed (Amaranthus retroflexus); details: foliage application, 320 g/ha, three weeks after application
In short: as §2

[15] = test system: green foxtail; experiment: Test Example 4: herbicidal effect by soil treatment (Table 19, symbol G); assay type: in vivo, green foxtail (Setaria viridis); details: amount of applied herbicide 320 g/ha
In short: as §1

[16] = test system: Chinese sprangletop; experiment: Test Example 3: herbicidal effect by foliage application, Wagner pot (Table 18, symbol D); assay type: in vivo, chinese sprangletop (Leptochloa chinensis); details: 320 g/ha
In short: as §3

[17] = test system: velvetleaf; experiment: Test Example 5: herbicidal effect by foliage application, plastic box (Table 20, symbol M); assay type: in vivo, velvetleaf (Abutilon theophrasti); details: foliage application, 320 g/ha, three weeks after application
In short: as §2

[18] = test system: velvetleaf; experiment: Test Example 4: herbicidal effect by soil treatment (Table 19, symbol M); assay type: in vivo, velvetleaf (Abutilon theophrasti); details: amount of applied herbicide 320 g/ha
In short: as §1

[19] = test system: wild oat; experiment: Test Example 4: herbicidal effect by soil treatment (Table 19, symbol I); assay type: in vivo, wild oat (Avena fatua); details: amount of applied herbicide 320 g/ha
In short: as §1

[20] = test system: southern crabgrass; experiment: Test Example 4: herbicidal effect by soil treatment (Table 19, symbol F); assay type: in vivo, southern crabgrass (Digitaria ciliaris); details: amount of applied herbicide 320 g/ha
In short: as §1

[21] = test system: windgrass; experiment: Test Example 4: herbicidal effect by soil treatment (Table 19, symbol L); assay type: in vivo, windgrass (Apera spica-venti); details: amount of applied herbicide 320 g/ha
In short: as §1

[22] = test system: windgrass; experiment: Test Example 5: herbicidal effect by foliage application, plastic box (Table 20, symbol L); assay type: in vivo, windgrass (Apera spica-venti); details: foliage application, 320 g/ha, three weeks after application
In short: as §2

[23] = test system: persian speedwell; experiment: Test Example 4: herbicidal effect by soil treatment (Table 19, symbol R); assay type: in vivo, Persian speedwell (Veronica persica); details: amount of applied herbicide 320 g/ha
In short: as §1

[24] = test system: wild oat; experiment: Test Example 5: herbicidal effect by foliage application, plastic box (Table 20, symbol I); assay type: in vivo, wild oat (Avena fatua); details: foliage application, 320 g/ha, three weeks after application
In short: as §2

[25] = test system: barnyard grass; experiment: Test Example 3: herbicidal effect by foliage application, Wagner pot (Table 18, symbol H); assay type: in vivo, barnyard grass (Echinochloa crus-galli); details: 320 g/ha
In short: as §3

[26] = test system: redroot pigweed; experiment: Test Example 4: herbicidal effect by soil treatment (Table 19, symbol N); assay type: in vivo, redroot pigweed (Amaranthus retroflexus); details: amount of applied herbicide 320 g/ha
In short: as §1

[27] = test system: persian speedwell; experiment: Test Example 5: herbicidal effect by foliage application, plastic box (Table 20, symbol R); assay type: in vivo, Persian speedwell (Veronica persica); details: foliage application, 320 g/ha, three weeks after application
In short: as §2

COc1ccc(-c2sc3cc(Cl)ccc3c2-c2c(O)c(C)nn(C)c2=O)cc1 [3-037]
O: lambsquarters, herbicidal effect grade [1]: 3 (Herbicidal rate of 40% or more and less than 70%)
F: southern crabgrass, herbicidal effect grade [2]: 0 (Herbicidal rate of 5% or less (almost no effect))
O: lambsquarters, herbicidal effect grade [3]: 4 (Herbicidal rate of 70% or more and less than 90%)
K: Italian ryegrass, herbicidal effect grade [4]: 0 (Herbicidal rate of 5% or less (almost no effect))
K: Italian ryegrass, herbicidal effect grade [5]: 0 (Herbicidal rate of 5% or less (almost no effect))
H: barnyard grass, herbicidal effect grade [6]: 0 (Herbicidal rate of 5% or less (almost no effect))
J: blackgrass, herbicidal effect grade [7]: 0 (Herbicidal rate of 5% or less (almost no effect))
G: green foxtail, herbicidal effect grade [8]: 0 (Herbicidal rate of 5% or less (almost no effect))
P: chickweed, herbicidal effect grade [9]: 5 (Herbicidal rate of 90% or more (almost completely withered))
H: barnyard grass, herbicidal effect grade [10]: 0 (Herbicidal rate of 5% or less (almost no effect))
P: chickweed, herbicidal effect grade [11]: 3 (Herbicidal rate of 40% or more and less than 70%)
herbicidal effect on rice flat sedge (E) [12]: 4 (Herbicidal rate of 70% or more and less than 90%)
J: blackgrass, herbicidal effect grade [13]: 0 (Herbicidal rate of 5% or less (almost no effect))
N: redroot pigweed, herbicidal effect grade [14]: 5 (Herbicidal rate of 90% or more (almost completely withered))
G: green foxtail, herbicidal effect grade [15]: 0 (Herbicidal rate of 5% or less (almost no effect))
herbicidal effect on Chinese sprangletop (D) [16]: 3 (Herbicidal rate of 40% or more and less than 70%)
M: velvetleaf, herbicidal effect grade [17]: 5 (Herbicidal rate of 90% or more (almost completely withered))
M: velvetleaf, herbicidal effect grade [18]: 0 (Herbicidal rate of 5% or less (almost no effect))
I: wild oat, herbicidal effect grade [19]: 0 (Herbicidal rate of 5% or less (almost no effect))
F: southern crabgrass, herbicidal effect grade [20]: 0 (Herbicidal rate of 5% or less (almost no effect))
L: windgrass, herbicidal effect grade [21]: 0 (Herbicidal rate of 5% or less (almost no effect))
L: windgrass, herbicidal effect grade [22]: 0 (Herbicidal rate of 5% or less (almost no effect))
R: persian speedwell, herbicidal effect grade [23]: 3 (Herbicidal rate of 40% or more and less than 70%)
I: wild oat, herbicidal effect grade [24]: 0 (Herbicidal rate of 5% or less (almost no effect))
herbicidal effect on barnyard grass (H) [25]: 4 (Herbicidal rate of 70% or more and less than 90%)
N: redroot pigweed, herbicidal effect grade [26]: 0 (Herbicidal rate of 5% or less (almost no effect))
R: persian speedwell, herbicidal effect grade [27]: 5 (Herbicidal rate of 90% or more (almost completely withered))
